Where two headings read alike, the source gives them in different places.
Experiments:
Erythrocytes = assay type: binding, human; conditions: for Kd: read-out: Kd (apparent dissociation constant), Erythrocytes
PBMCs = assay type: binding, human; conditions: for Kd: read-out: Kd (apparent dissociation constant), PBMCs
[1] = tested on: POPC and POPC:Chol (2:1) LUV, erythrocytes and PBMCs; assay type: binding, human
[2] = pH 7.4
[3] = pH 7.4; remark: listed apart in the source

Compound: VIKI–GSGSG–C-dPEG4–Cys–cholesterol [VIKI-dPEG4-Chol]
- Rmin, Erythrocytes (Erythrocytes): −0.33 ± 0.01
- Kd (Erythrocytes; 1.4% DMSO): 130 ± 30 nM
- Rmin, PBMCs (PBMCs): −0.23 ± 0.02
- Kd (PBMCs; 1.4% DMSO): 300 ± 120 nM

Compound: tocopherol
- change in membrane dipole potential (di-8-ANEPPS) [1]: no changes in dipole potential were observed

Compound: CC(C)CCC[C@@H](C)[C@H]1CC[C@H]2[C@@H]3CC=C4C[C@@H](O)CC[C@]4(C)[C@H]3CC[C@]12C [cholesterol]
- change in membrane dipole potential (di-8-ANEPPS) [1]: no changes in dipole potential were observed

Compound: VIKI–GSGSG–C-dPEG4–Cys-(PEG4-bis-tocopherol) [VIKI-dPEG4-bisToco]
- Rmin, Erythrocytes (Erythrocytes): −0.22 ± 0.01
- Kd (Erythrocytes): 90 ± 30 nM
- Rmin, PBMCs (PBMCs): −0.27 ± 0.01
- Kd (PBMCs): 180 ± 40 nM

Compound: VIKI–GSGSG–C-dPEG4–Cys–tocopherol [VIKI-dPEG4-Toco]
- Rmin, Erythrocytes (Erythrocytes): −0.30 ± 0.01
- Kd (Erythrocytes): 140 ± 30 nM
- Rmin, PBMCs (PBMCs): −0.29 ± 0.02
- Kd (PBMCs): 510 ± 120 nM

Compound: VIKI–GSGSG–C-dPEG4–Cys–(PEG4-bis-cholesterol) [VIKI-dPEG4-bisChol]
- Rmin, Erythrocytes (Erythrocytes): −0.36 ± 0.01
- Kd (Erythrocytes; 1.4% DMSO): 70 ± 20 nM
- Rmin, PBMCs (PBMCs): −0.24 ± 0.01
- Kd (PBMCs; 1.4% DMSO): 220 ± 50 nM

Compound: VIKI–GSGSG-C-dPEG4–Cys–(CH2CONH2) [VIKI-dPEG4]
- maximum fluorescence emission wavelength, free in solution [2]: 356 nm
- secondary structure by CD [3]: random coil

Reference: PMC8945041 (Biomedicines, 2022)
